{"source": "patent US20240307507A1", "about": "“LACTOFERRIN COMPOSITIONS AND METHODS OF USE” (LACTEA THERAPEUTICS LLC, priority 2021, published 2024)", "system": "SARS-COV-2", "assay": "SARS-COV-2 Cytopathic Effect (CPE) reduction assay in Vero E6 cells", "format": "cell-based", "details": "Severe acute respiratory syndrome coronavirus 2, Vero C1008, 72 h", "data": [{"smiles": "CCC(CC)COC(=O)[C@H](C)N[P@](=O)(OC[C@H]1O[C@@](C#N)(c2ccc3c(N)ncnn23)[C@H](O)[C@@H]1O)Oc1ccccc1", "note": "[Remdesivir, reference compound]", "values": [{"measurement": "EC50", "result": 4.5, "unit": "µM"}]}]}
